Measured values: patent US20260365653A1, “IRREVERSIBLE MUTEGFR INHIBITORS” (Bayer Aktiengesellschaft, priority 2022, published 2026)

Columns and labels:
BA/F3 (insSVD) cells = assay: Ba/F3-EGFR-insSVD cell survival assay (Cell Titer-Glo); format: cell-based; conditions: Mus musculus, BaF3, 48 h
Outline: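 Ba/F3 cells stably expressing retroviral EGFR-insSVD or insSVD T790M, grown without IL-3 on 10 ng/ml EGF, 4000 cells/well. Compound pinned in, 48 h at 37° C. Viability by CellTiter-Glo luminescence.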

[1] = molecular target: T1, mutEGFR (D770_N771insSVD) (Homo sapiens, UniProt P00533, DUP768-770); assay: Exon20-Mutant-EGFR (D770_N771insSVD) kinase assay (TR-FRET); format: biochemical
T1 construct: GST-EGFR #3 (SVD between D770 and N771); made in house; host or cells: Sf9 insect cells (baculovirus)

[2] = molecular target: T2, mutEGFR (D770_N771insNPG, T790) (Homo sapiens, UniProt P00533, INS770NPG/T790M); assay: mutEGFR (D770_N771insNPG, T790) kinase assay; format: biochemical
T2 construct: exact insNPG construct not described; in-house EGFR proteins were N-terminal GST fusions from baculovirus/insect cells (borders R669-A1210 given only for WT, insSVD, insASV)
From the text: The different EGFR proteins used in the biochemical kinase activity inhibition assays were generated inhouse by expression in insect cells using Baculo Virus system and subsequent purification as described in the following paragraphs.
The cDNAs encoding the various protein sequences from human EGFR human (P00533) were optimized for expression in eukaryotic cells and synthesized by the GeneArt Technology at Life Technologies.

[3] = Table 3a, cell survival, Cell Titer-Glo, with 10 ng/ml EGF, without IL-3
[4] = mutEGFR (D770_N771insSVD) kinase assay IC50, Table 2a, D770_N771insSVD, 2 mM ATP

T2 sequence (P00533 with tags, fused parts or gaps INS770NPG/T790M limits assumed): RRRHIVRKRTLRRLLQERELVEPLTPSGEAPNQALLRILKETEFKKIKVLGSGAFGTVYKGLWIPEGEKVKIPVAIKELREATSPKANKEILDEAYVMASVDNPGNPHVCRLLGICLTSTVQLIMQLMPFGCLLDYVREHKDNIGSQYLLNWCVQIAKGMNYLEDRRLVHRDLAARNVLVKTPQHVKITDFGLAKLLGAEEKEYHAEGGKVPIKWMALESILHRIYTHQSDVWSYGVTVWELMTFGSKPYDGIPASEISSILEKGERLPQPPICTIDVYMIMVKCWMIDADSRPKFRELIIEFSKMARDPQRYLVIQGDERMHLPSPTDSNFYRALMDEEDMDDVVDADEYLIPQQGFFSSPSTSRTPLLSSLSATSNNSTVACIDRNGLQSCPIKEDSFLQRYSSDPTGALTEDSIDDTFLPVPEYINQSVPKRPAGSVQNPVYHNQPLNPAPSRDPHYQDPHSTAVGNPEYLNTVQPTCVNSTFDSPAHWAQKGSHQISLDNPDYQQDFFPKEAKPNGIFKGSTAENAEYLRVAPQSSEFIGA
T1 sequence (P00533 with tags, fused parts or gaps DUP768-770): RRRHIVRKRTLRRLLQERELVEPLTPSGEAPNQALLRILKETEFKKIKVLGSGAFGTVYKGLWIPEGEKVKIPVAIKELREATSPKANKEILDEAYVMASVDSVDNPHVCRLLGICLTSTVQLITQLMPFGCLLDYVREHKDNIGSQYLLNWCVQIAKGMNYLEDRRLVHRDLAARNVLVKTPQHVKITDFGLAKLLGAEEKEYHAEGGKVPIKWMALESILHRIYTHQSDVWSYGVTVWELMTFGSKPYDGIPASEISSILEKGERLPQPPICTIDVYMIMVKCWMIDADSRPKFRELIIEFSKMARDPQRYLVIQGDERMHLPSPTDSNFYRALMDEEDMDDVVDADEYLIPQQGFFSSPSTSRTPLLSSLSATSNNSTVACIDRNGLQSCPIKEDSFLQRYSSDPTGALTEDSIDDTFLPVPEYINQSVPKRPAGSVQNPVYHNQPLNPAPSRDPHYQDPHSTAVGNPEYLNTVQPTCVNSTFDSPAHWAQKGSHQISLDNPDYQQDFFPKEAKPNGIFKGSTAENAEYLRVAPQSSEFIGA

Row | Compound | IC50 [1, 4] [nM] | IC50 ([2]; Table 2a, D770_N771insNPG) [nM] | IC50 ([1]; mutEGFR (D770_N771insSVD) kinase assay IC50, Table 2b (from US Priority Patent Application), mutEGFR D770_N771insSVD) [nM] | IC50 ([2]; Table 2b (from US Priority Patent Application), mutEGFR D770_N771insNPG) [nM] | IC50 (BA/F3 (insSVD) cells; [3]) [nM] | IC50 (BA/F3 (insSVD) cells; Table 3b, Ba/F3 EGFR-insSVD) [nM]
1 | CN(C)C/C=C/C(=O)N1CCn2nc(-c3ccc(C#N)cc3)c(-c3ccncc3)c2C1 [Example 33, 4-{5-[(2E)-4-(dimethylamino)but-2-enoyl]-3-(pyridin-4-yl)-4,5,6,7-tetrahydropyrazolo[1,5-a]pyrazin-2-yl}benzonitrile] | 8.35 | 67 |  |  | 1840 | 
2 | C=CC(=O)N1CCn2nc(-c3ccc(Cl)cc3F)c(-c3ccncc3C)c2C1 [Example 50, 1-[2-(4-chloro-2-fluorophenyl)-3-(3-methylpyridin-4-yl)-6,7-dihydropyrazolo[1,5-a]pyrazin-5(4H)-yl]prop-2-en-1-one] | 8.5 | 135 |  |  | 156 | 
3 | Cc1c[nH]c2nccc(-c3c(-c4ccc(C(F)(F)F)cc4)nn4c3CN(C(=O)/C=C/CN(C)C)CC4)c12 [Example 58, (2E)-4-(dimethylamino)-1-[3-(3-methyl-1H-pyrrolo[2,3-b]pyridin-4-yl)-2-[4-(trifluoromethyl)phenyl]-6,7-dihydropyrazolo[1,5-a]pyrazin-5(4H)-yl]but-2-en-1-one] | 446 | 1300 |  |  | 138 | 
4 | C=CC(=O)N1CCn2nc(-c3ccccc3Cl)c(-c3ccnc4[nH]cc(C)c34)c2C1 [Example 179, 1-[2-(2-chlorophenyl)-3-(3-methyl-1H-pyrrolo[2,3-b]pyridin-4-yl)-6,7-dihydropyrazolo[1,5-a]pyrazin-5(4H)-yl]prop-2-en-1-one] | 438 | 360 |  |  | 265 | 
5 | C=CC(=O)N1Cc2c(-c3ccncc3)c(-c3ccc(F)cc3)nn2C(C(=O)N(C)C)C1 (single isomer, unassigned; isomer 1) [Example 206, 5-acryloyl-2-(4-fluorophenyl)-N,N-dimethyl-3-(pyridin-4-yl)-4,5,6,7-tetrahydropyrazolo[1,5-a]pyrazine-7-carboxamide (isomer 1)] | 55.3 | 82.9 |  |  | 600 | 
6 | CCc1ccc(-c2nn3c(c2-c2ccncc2)CN(C(=O)/C=C/CN(C)C)CC3)cc1 [Example 158, (2E)-4-(dimethylamino)-1-[2-(4-ethylphenyl)-3-(pyridin-4-yl)-6,7-dihydropyrazolo[1,5-a]pyrazin-5(4H)-yl]but-2-en-1-one] | 5.01 | 16.4 |  |  | 482 | 
7 | Cc1c[nH]c2nccc(-c3c(-c4ccc(F)cc4)nn4c3CN(C(=O)/C=C/CN(C)C)[C@H](C)C4)c12 [Example 269, (2E)-4-(dimethylamino)-1-[(6R)-2-(4-fluorophenyl)-6-methyl-3-(3-methyl-1H-pyrrolo[2,3-b]pyridin-4-yl)-6,7-dihydropyrazolo[1,5-a]pyrazin-5(4H)-yl]but-2-en-1-one] | 138 | 38.2 |  |  | 128 | 
8 | COc1ccc(-c2nn3c(c2-c2ccnc4[nH]cc(C)c24)CN(C(=O)/C=C/CN(C)C)CC3)cc1F [Example 59, (2E)-4-(dimethylamino)-1-[2-(3-fluoro-4-methoxyphenyl)-3-(3-methyl-1H-pyrrolo[2,3-b]pyridin-4-yl)-6,7-dihydropyrazolo[1,5-a]pyrazin-5(4H)-yl]but-2-en-1-one] | 813 | 956 |  |  | 488 | 
9 | O=C(C#CC1CCCN1)N1CCn2nc(-c3ccc(F)cc3)c(-c3ccncc3)c2C1 (racemic) [Example 88, 1-[2-(4-fluorophenyl)-3-(pyridin-4-yl)-6,7-dihydropyrazolo[1,5-a]pyrazin-5(4H)-yl]-3-[(2RS)-pyrrolidin-2-yl]prop-2-yn-1-one] | 9.27 | 15.8 |  |  | 3790 | 
10 | C=CC(=O)N1CCn2nc(-c3ccc(F)cc3)c(-c3ccnc4[nH]cc(C)c34)c2C1 [Example 173, 1-[2-(4-fluorophenyl)-3-(3-methyl-1H-pyrrolo[2,3-b]pyridin-4-yl)-6,7-dihydropyrazolo[1,5-a]pyrazin-5(4H)-yl]prop-2-en-1-one] | 157 | 25.5 |  |  | 62.8 | 

These reach a lower IC50 [1, 4]. Values come first.

Row | IC50 [1, 4] [nM] | IC50 ([2]; Table 2a, D770_N771insNPG) [nM] | IC50 ([1]; mutEGFR (D770_N771insSVD) kinase assay IC50, Table 2b (from US Priority Patent Application), mutEGFR D770_N771insSVD) [nM] | IC50 ([2]; Table 2b (from US Priority Patent Application), mutEGFR D770_N771insNPG) [nM] | Compound | IC50 (BA/F3 (insSVD) cells; [3]) [nM] | IC50 (BA/F3 (insSVD) cells; Table 3b, Ba/F3 EGFR-insSVD) [nM]
11 | 1.09 | 3.22 |  |  | C=CC(=O)N1CCn2nc(-c3ccc(OC)cc3)c(-c3ccncc3)c2C1 [Example 41, 1-[2-(4-methoxyphenyl)-3-(pyridin-4-yl)-6,7-dihydropyrazolo[1,5-a]pyrazin-5(4H)-yl]prop-2-en-1-one] | 37.2 | 
12 | 0.197 | 0.995 |  |  | O=C(/C=C/Cl)N1CCn2nc(-c3ccc(Cl)cc3F)c(-c3ccncc3)c2C1 [Example 75, (2E)-3-chloro-1-[2-(4-chloro-2-fluorophenyl)-3-(pyridin-4-yl)-6,7-dihydropyrazolo[1,5-a]pyrazin-5(4H)-yl]prop-2-en-1-one] | 135 | 
13 | 0.116 | 0.164 |  |  | C=CC(=O)N1Cc2c(-c3ccncc3)c(-c3ccc4ccccc4c3)nn2CC1C (racemic) [Example 232, 1-[(RS)-6-methyl-2-(naphthalen-2-yl)-3-(pyridin-4-yl)-6,7-dihydropyrazolo[1,5-a]pyrazin-5(4H)-yl]prop-2-en-1-one] | 15.5 | 
14 | 2.99 | 9.37 |  |  | CN1CCN(C/C=C/C(=O)N2CCn3nc(-c4ccc(Cl)cc4)c(-c4ccncc4)c3C2)CC1 [Example 164, (2E)-1-[2-(4-chlorophenyl)-3-(pyridin-4-yl)-6,7-dihydropyrazolo[1,5-a]pyrazin-5(4H)-yl]-4-(4-methylpiperazin-1-yl) but-2-en-1-one] | 155 | 
15 | 0.245 | 0.692 |  |  | COC1CCN(C/C=C/C(=O)N2CCn3nc(-c4ccc(Cl)cc4)c(-c4ccncc4)c3C2)CC1 [Example 168, (2E)-1-[2-(4-chlorophenyl)-3-(pyridin-4-yl)-6,7-dihydropyrazolo[1,5-a]pyrazin-5(4H)-yl]-4-(4-methoxypiperidin-1-yl) but-2-en-1-one] | 63.7 | 
16 | 1.57 | 2.21 |  |  | C=C(F)C(=O)N1Cc2c(-c3ccncc3)c(-c3ccc4ccsc4c3)nn2CC1C (racemic) [Example 238, 1-[(RS)-2-(1-benzothiophen-6-yl)-6-methyl-3-(pyridin-4-yl)-6,7-dihydropyrazolo[1,5-a]pyrazin-5(4H)-yl]-2-fluoroprop-2-en-1-one] | 68.7 | 
17 | 0.258 | 0.467 |  |  | C=CC(=O)N1Cc2c(-c3ccncc3)c(-c3ccc4cc(Cl)sc4c3)nn2CC1C (racemic) [Example 233, 1-[(RS)-2-(2-chloro-1-benzothiophen-6-yl)-6-methyl-3-(pyridin-4-yl)-6,7-dihydropyrazolo[1,5-a]pyrazin-5(4H)-yl]prop-2-en-1-one] | 48.7 | 
18 | 0.393 | 0.765 | 0.393 | 0.765 | CN(C)C/C=C/C(=O)N1CCn2nc(-c3ccc(F)cc3)c(-c3ccnc(NC(=O)C4CC4)c3)c2C1 [Example 8, N-(4-{5-[(2E)-4-(dimethylamino)but-2-enoyl]-2-(4-fluorophenyl)-4,5,6,7-tetrahydropyrazolo[1,5-a]pyrazin-3-yl}pyridin-2-yl)cyclopropanecarboxamide] | 20.4 | 20.4
19 | 3.94 | 21.6 |  |  | CN(C)C/C=C/C(=O)N1CCn2nc(Nc3ccccc3)c(-c3ccncc3)c2C1 [Example 273, (2E)-1-[2-anilino-3-(pyridin-4-yl)-6,7-dihydropyrazolo[1,5-a]pyrazin-5(4H)-yl]-4-(dimethylamino)but-2-en-1-one] | 531 | 
20 | 0.169 | 0.338 |  |  | CC(C)N(C)C/C=C/C(=O)N1CCn2nc(-c3ccc(Cl)cc3)c(-c3ccncc3)c2C1 [Example 166, (2E)-1-[2-(4-chlorophenyl)-3-(pyridin-4-yl)-6,7-dihydropyrazolo[1,5-a]pyrazin-5(4H)-yl]-4-[isopropyl(methyl)amino]but-2-en-1-one] | 78.1 | 
21 | 0.416 | 1.04 |  |  | C=CC(=O)N1Cc2c(-c3ccncc3)c(-c3ccc(C(F)(F)F)cc3F)nn2CC1C (racemic) [Example 230, 1-[(6RS)-2-[2-fluoro-4-(trifluoromethyl)phenyl]-6-methyl-3-(pyridin-4-yl)-6,7-dihydropyrazolo[1,5-a]pyrazin-5(4H)-yl]prop-2-en-1-one] | 15.6 | 
22 | 0.384 | 1.86 |  |  | C=CC(=O)N1CCn2nc(-c3ccc(Cl)cc3C)c(-c3ccncc3)c2C1 [Example 117, 1-[2-(4-chloro-2-methylphenyl)-3-(pyridin-4-yl)-6,7-dihydropyrazolo[1,5-a]pyrazin-5(4H)-yl]prop-2-en-1-one] | 54.5 | 
23 | 0.12 | 0.394 |  |  | C=CC(=O)N1Cc2c(-c3ccncc3)c(-c3ccc(Cl)cc3F)nn2CC1C (stereo not drawn) [Example 227, 1-(2-(4-chloro-2-fluorophenyl)-6-methyl-3-(pyridin-4-yl)-6,7-dihydropyrazolo[1,5-a]pyrazin-5(4H)-yl) prop-2-en-1-one] | 5.94 | 
